The record followed here is the Kinase Knowledgebase extract (Sharma et al. 2016).

For this assay, the target named is PIK3CG (human) (UniProt P48736). Nature of the assay: Inhibition of PIK3CG Kinase Activity.

Structures are written as SMILES. pIC50: −log10 of the molar value. A value given as a limit tells only on which side of the number the result lay.

Chain of PIK3CG (human) (P48736 whole entry, looked up): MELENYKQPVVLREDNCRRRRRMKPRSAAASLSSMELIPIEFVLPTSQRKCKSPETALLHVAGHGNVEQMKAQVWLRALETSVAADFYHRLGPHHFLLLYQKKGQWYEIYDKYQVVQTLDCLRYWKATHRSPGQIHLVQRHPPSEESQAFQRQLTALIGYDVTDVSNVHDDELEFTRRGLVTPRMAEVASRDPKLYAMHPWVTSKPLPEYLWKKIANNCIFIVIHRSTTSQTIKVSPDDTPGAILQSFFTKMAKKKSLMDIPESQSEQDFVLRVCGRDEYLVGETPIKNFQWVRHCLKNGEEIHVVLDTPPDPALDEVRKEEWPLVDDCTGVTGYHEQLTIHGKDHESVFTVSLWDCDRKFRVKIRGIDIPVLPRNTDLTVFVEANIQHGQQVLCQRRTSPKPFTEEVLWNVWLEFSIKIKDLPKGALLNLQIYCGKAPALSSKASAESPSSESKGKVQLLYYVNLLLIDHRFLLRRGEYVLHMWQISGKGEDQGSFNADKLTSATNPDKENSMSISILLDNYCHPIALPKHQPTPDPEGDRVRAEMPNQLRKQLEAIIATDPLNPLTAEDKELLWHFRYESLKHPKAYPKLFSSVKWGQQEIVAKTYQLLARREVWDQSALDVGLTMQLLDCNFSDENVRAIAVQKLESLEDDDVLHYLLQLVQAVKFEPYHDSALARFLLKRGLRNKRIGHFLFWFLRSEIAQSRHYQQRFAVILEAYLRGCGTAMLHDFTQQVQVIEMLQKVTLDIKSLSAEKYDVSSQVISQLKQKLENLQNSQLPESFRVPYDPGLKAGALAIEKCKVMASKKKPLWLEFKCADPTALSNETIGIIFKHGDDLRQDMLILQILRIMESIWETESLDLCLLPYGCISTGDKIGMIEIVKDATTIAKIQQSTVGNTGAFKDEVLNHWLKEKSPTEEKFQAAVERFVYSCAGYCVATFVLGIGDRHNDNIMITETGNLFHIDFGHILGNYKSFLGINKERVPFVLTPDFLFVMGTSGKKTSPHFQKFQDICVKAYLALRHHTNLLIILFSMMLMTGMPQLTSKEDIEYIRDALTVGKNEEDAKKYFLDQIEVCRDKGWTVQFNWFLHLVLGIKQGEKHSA

For `CC(=O)Nc1nc2c(s1)-c1c(c(C3CC3)nn1-c1ccccc1C(F)(F)F)CC2`, the pIC50 (usually the negative decadic logarithm of the IC50, by convention in mol/L) was more than 6.22.

For the compound `CC(=O)Nc1nc2c(s1)-c1c(c(C3CC3)nn1-c1ccc(C(=O)N(C)[C@H]3CCN(C4CCCCC4)C3)cc1C)CC2`, the pIC50 was more than 6.22.

`CC(=O)Nc1nc2c(s1)-c1c(c(C3CC3)nn1-c1ccc(C(=O)N[C@H]3CC[C@@H](N4CCCCC4)CC3)c(Cl)c1)CC2` had a pIC50 of more than 6.22.

In the case of `CCCN1CC[C@@H](NC(=O)c2ccc(-n3nc(C4CC4)c4c3-c3sc(NC(C)=O)nc3CC4)cc2C)C1`, the pIC50 is more than 6.22.

For `CC(=O)Nc1nc2c(s1)-c1c(c(C3CC3)nn1-c1ccc(C(=O)N[C@H]3CC[C@@H](N4CCCCC4)CC3)cc1C)CC2`, the pIC50 was more than 6.22.

Regarding `CC(=O)Nc1nc2c(s1)-c1c(c(C3CC3)nn1C1CCC(C(=O)NC3CCN(CC4CCCC4)CC3)CC1)CC2` (stereo not drawn), the pIC50 was more than 6.22.

The compound `CC(=O)Nc1nc2c(s1)-c1c(c(C3CC3)nn1-c1ccc(C(=O)N[C@H]3CC[C@@H](N(C)CC4CC4)CC3)cc1C)CC2` showed a pIC50 of more than 6.22.

Compound `CC(=O)Nc1nc2c(s1)-c1c(c(C3CC3)nn1C1CCC(C(=O)NC3CCN(C4CCCC4)CC3)CC1)CC2` (stereo not drawn) gave a pIC50 of more than 6.22.

Compound `CC(=O)Nc1nc2c(s1)-c1c(c(C3(C)CC3)nn1-c1ccc(C(=O)N(C)[C@H]3CC[C@@H](N4CCCC4)CC3)cc1Cl)CC2` had a negative logarithm of the IC50 (pIC50) of more than 6.22.

Compound `CC(=O)Nc1nc2c(s1)-c1c(c(C3CC3)nn1-c1ccc(N)c(Cl)c1)CC2` showed a pIC50 of more than 6.22.

For the compound `CC(=O)Nc1nc2c(s1)-c1c(c(C3CC3)nn1-c1ccc(C(=O)NC3CCN(CC4CCCCC4)CC3)cc1F)CC2`, the pIC50 was more than 6.22.

With `CC(=O)Nc1nc2c(s1)-c1c(c(C3CC3)nn1-c1ccc(C(=O)N[C@H]3CC[C@@H](N4CCOCC4)CC3)cc1F)CC2`, the pIC50 is more than 6.22.

`CC(=O)Nc1nc2c(s1)-c1c(c(C3(C)CC3)nn1-c1ccc(C(=O)N[C@H]3CC[C@@H](N4CCCC4)CC3)cc1Cl)CC2` showed a pIC50 of more than 6.22.

As for `CCCN1CC[C@@H](NC(=O)c2ccc(-n3nc(C4CC4)c4c3-c3sc(NC(C)=O)nc3CC4)cc2Cl)C1`, the pIC50 is more than 6.22.

As for `CC(=O)Nc1nc2c(s1)-c1c(c(C3CC3)nn1-c1ccc(C(=O)N[C@@H]3CCN(C4CCCCC4)C3)cc1C)CC2`, the pIC50 is more than 6.22.

For `CC(=O)Nc1nc2c(s1)-c1c(c(C3CC3)nn1C1CCN(C(=O)C3CCN(CC4CCCCC4)CC3)CC1)CC2`, the pIC50 is more than 6.22.

Compound `CC(=O)Nc1nc2c(s1)-c1c(c(C3CC3)nn1-c1ccc(C(=O)NC[C@@H]3CCCN3C3CCCC3)c(Cl)c1)CC2` gave a pIC50 of more than 6.22.

On to `CC(=O)Nc1nc2c(s1)-c1c(c(C3CC3)nn1-c1ccc(C(=O)N[C@H]3CC[C@@H](N(C)CC4CCCC4)CC3)c(C)c1)CC2`, for which the pIC50 was more than 6.22.

`CC(=O)Nc1nc2c(s1)-c1c(c(C3CC3)nn1-c1ccc(C(=O)NC3CCN(C4CCOCC4)CC3)cc1F)CC2` showed a pIC50 of more than 6.22.

Take `CC(=O)Nc1nc2c(s1)-c1c(c(C3CC3)nn1-c1ccc(C(=O)N(C)[C@H]3CCN(C4CCCCC4)C3)cc1F)CC2`: the pIC50 is more than 6.22.

As to `CC(=O)Nc1nc2c(s1)-c1c(c(C3CC3)nn1-c1ccc(C(=O)N[C@@H]3CCN(C4CCCCC4)C3)c(Cl)c1)CC2`, the pIC50 is more than 6.22.

On to `CC(=O)Nc1nc2c(s1)-c1c(c(C3CC3)nn1-c1ccc(C(=O)N[C@@H]3CCN(CC4CCCC4)C3)c(C)c1)CC2`, for which the pIC50 was more than 6.22.

Turning to `CC(=O)Nc1nc2c(s1)-c1c(c(C3CC3)nn1-c1ccc(C(=O)NC3CCN(C4CCCCC4)CC3)cc1Cl)CC2`, the pIC50 was more than 6.22.

Turning to `CC(=O)Nc1nc2c(s1)-c1c(c(C3(C)CC3)nn1-c1ccc(C(=O)N[C@H]3CC[C@@H](N4CCCCC4)CC3)cc1Cl)CC2`, the pIC50 is more than 6.22.

`CC(=O)Nc1nc2c(s1)-c1c(c(C3CC3)nn1-c1ccc(C(=O)NC3CCN(CC4CCCCC4)CC3)c(F)c1)CC2` had a pIC50 of more than 6.22.

The compound `CCCN1CCC(NC(=O)C2CCC(n3nc(C4CC4)c4c3-c3sc(NC(C)=O)nc3CC4)CC2)CC1` (stereo not drawn) showed a pIC50 of more than 6.22.

Take `CC(=O)Nc1nc2c(s1)-c1c(c(C3CCCC3)nn1-c1ccc(C(=O)NC3CCN(C4CCOCC4)CC3)cc1Cl)CC2`: the pIC50 is more than 6.22.

As for `CC(=O)Nc1nc2c(s1)-c1c(c(C3CC3)nn1-c1ccc(C(=O)N(C)[C@@H]3CCN(CC4CCCC4)C3)cc1C)CC2`, the pIC50 was more than 6.22.

Compound `CC(=O)Nc1nc2c(s1)-c1c(c(C3CC3)nn1-c1ccc(C(=O)N(C)C[C@H]3CCN(C4CCCC4)C3)c(Cl)c1)CC2` showed a pIC50 of more than 6.22.

In turn, `CC(=O)Nc1nc2c(s1)-c1c(c(C3CC3)nn1-c1ccc(C(=O)N[C@H]3CC[C@@H](N(C)CC4CCCC4)CC3)cc1F)CC2` had a negative-log IC50 (pIC50) of more than 6.22.

For the compound `CC(=O)Nc1nc2c(s1)-c1c(c(C3CC3)nn1-c1ccc(C(=O)N[C@H]3CC[C@@H](N(C)CC4CC4)CC3)c(C)c1)CC2`, the pIC50 is more than 6.22.

Compound `CCN(C(=O)c1ccc(-n2nc(C3CC3)c3c2-c2sc(NC(C)=O)nc2CC3)c(F)c1)[C@H]1CC[C@@H](N2CCCC2)CC1` gave a pIC50 of more than 6.22.

With `CC(=O)Nc1nc2c(s1)-c1c(c(C3CC3)nn1-c1ccc(C(=O)NC3CCN(CC4CCCC4)CC3)cc1F)CC2`, the pIC50 was more than 6.22.

For the compound `COc1cc(-n2nc(C3CC3)c3c2-c2sc(NC(C)=O)nc2CC3)ccc1C(=O)N(C)C1CCC(N2CCCC2)CC1` (stereo not drawn), the pIC50 was more than 6.22.

For the compound `CC(=O)Nc1nc2c(s1)-c1c(c(C3CC3)nn1-c1ccc(C(=O)N[C@@H]3CCN(C4CCCC4)C3)cc1Cl)CC2`, the pIC50 was more than 6.22.

In the case of `CC(=O)Nc1nc2c(s1)-c1c(c(C3CC3)nn1-c1ccc(C(=O)NC[C@H]3CCCN3C3CCCC3)c(Cl)c1)CC2`, the pIC50 is more than 6.22.

Consider `CC(=O)Nc1nc2c(s1)-c1c(c(C3CC3)nn1C1CCN(C(=O)C3CCCCC3)CC1)CC2`, for which the pIC50 is more than 6.22.

`CC(=O)Nc1nc2c(s1)-c1c(c(C3CC3)nn1-c1ccc(C(=O)N(C)CC3CCN(C4CCCC4)CC3)cc1Cl)CC2` gave a pIC50 of more than 6.22.

As for `CC(=O)Nc1nc2c(s1)-c1c(c(C3CC3)nn1-c1ccc(C(=O)NCc3ccncc3)cc1Cl)CC2`, the pIC50 was more than 6.22.

As for `CC(=O)Nc1nc2c(s1)-c1c(c(C3CC3)nn1-c1ccc(C(=O)N(C)C3CCC(N4CCCC4)CC3)c(F)c1)CC2` (stereo not drawn), the pIC50 is more than 6.22.

In turn, `CC(=O)Nc1nc2c(s1)-c1c(c(C3CC3)nn1C1CCC(C(=O)N(C)[C@H]3CC[C@@H](N4CCCC4)CC3)CC1)CC2` (stereo partly drawn) had a pIC50 of more than 6.22.

The compound `CC(=O)Nc1nc2c(s1)-c1c(c(C3CC3)nn1-c1ccc(C(=O)NC3CCN(CC4CCCC4)CC3)c(C)c1)CC2` had a pIC50 of more than 6.22.

`CC(=O)Nc1nc2c(s1)-c1c(c(C3CC3)nn1-c1ccc(C(=O)N(C)[C@@H]3CCN(C4CCCC4)C3)cc1Cl)CC2` showed a pIC50 of more than 6.22.

In the case of `CC(=O)Nc1nc2c(s1)-c1c(c(C3CC3)nn1-c1ccc(C(=O)N(C)C3CCC(N4CCCC4)CC3)cc1Cl)CC2` (stereo not drawn), the pIC50 was more than 6.22.

Take `CC(=O)Nc1nc2c(s1)-c1c(c(C3CCCC3)nn1-c1ccc(C(=O)N[C@H]3CC[C@@H](N4CCCCC4)CC3)cc1Cl)CC2`: the negative-log IC50 (pIC50) is more than 6.22.

In the case of `CC(=O)Nc1nc2c(s1)-c1c(c(C3CC3)nn1-c1ccc(NC(=O)C3CCN(C4CCCC4)CC3)cc1Cl)CC2`, the pIC50 is more than 6.22.

`CC(=O)Nc1nc2c(s1)-c1c(c(C3CCCC3)nn1-c1ccc(C(=O)NC3CCN(C(C)C)CC3)cc1Cl)CC2` showed a pIC50 of more than 6.22.

On to `CC(=O)Nc1nc2c(s1)-c1c(c(C3CC3)nn1-c1ccc(C(=O)N[C@H]3CC[C@@H](N4CCCC4)CC3)cc1C)CC2`, for which the pIC50 is more than 6.22.
